# In PMC6273767, “Comparative Studies of Interactions between Fluorodihydroquinazolin Derivatives and Human Serum Albumin with Fluorescence Spectroscopy” (Molecules, 2016):
# Biological target: T1, human serum albumin (HSA) (Homo sapiens, UniProt P02768)
# T1 construct: gene ALB; mature serum albumin, 585 residues (signal and propeptide removed)
# Assay: tryptophan fluorescence quenching, modified Stern-Volmer
# Assay type: binding
# Settings: 298 K, pH 7.4, 0.1 M Tris, 0.1 M NaCl, 1 µM HSA, excitation 280 nm; mainly site II (subdomain IIIA)
# Source text: tryptophan fluorescence quenching, modified Stern-Volmer on human serum albumin (HSA)
# T1 sequence (P02768 25-609): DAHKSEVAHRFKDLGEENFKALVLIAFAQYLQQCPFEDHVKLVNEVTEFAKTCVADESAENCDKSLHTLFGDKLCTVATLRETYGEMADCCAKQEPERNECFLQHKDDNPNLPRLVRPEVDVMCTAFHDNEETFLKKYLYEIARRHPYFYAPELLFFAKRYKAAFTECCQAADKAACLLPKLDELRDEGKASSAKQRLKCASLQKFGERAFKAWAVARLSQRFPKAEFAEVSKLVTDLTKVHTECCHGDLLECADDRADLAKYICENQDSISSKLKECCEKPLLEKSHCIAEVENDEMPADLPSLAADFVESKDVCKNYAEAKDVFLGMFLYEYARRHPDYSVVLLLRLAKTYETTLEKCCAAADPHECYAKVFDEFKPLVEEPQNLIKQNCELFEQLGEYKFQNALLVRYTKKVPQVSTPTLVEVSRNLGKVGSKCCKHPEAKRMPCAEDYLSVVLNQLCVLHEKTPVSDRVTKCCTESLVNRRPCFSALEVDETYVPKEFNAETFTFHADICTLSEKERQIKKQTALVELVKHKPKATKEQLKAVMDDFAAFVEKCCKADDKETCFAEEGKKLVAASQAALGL
row,SMILES,Ka (×10^4 M^-1)
1,"CC(C)(C)CC(=O)N1c2ccc(Cl)cc2C(=O)N(N=Cc2ccccc2)C1c1ccccc1 (stereo not shown) [3a, 3-(Benzylideneamino)-6-chloro-1-(3,3-dimethylbutanoyl)-2-phenyl-2,3-dihydroquinazolin-4(1H)-one]",2.16 × 10^4 M^−1
2,"CC(C)(C)CC(=O)N1c2ccc(Cl)cc2C(=O)N(N=Cc2cccc(F)c2)C1c1ccccc1 (stereo not shown) [3c, 6-Chloro-1-(3,3-dimethylbutanoyl)-3-(3-fluorobenzylideneamino)-2-phenyl-2,3-dihydroquinazolin-4(1H)-one]",2.73 × 10^4 M^−1
3,"CC(C)(C)CC(=O)N1c2ccc(Cl)cc2C(=O)N(N=Cc2ccc(F)cc2)C1c1ccccc1 (stereo not shown) [3b, 6-Chloro-1-(3,3-dimethylbutanoyl)-3-(4-fluorobenzylideneamino)-2-phenyl-2,3-dihydroquinazolin-4(1H)-one]",2.33 × 10^4 M^−1
4,"CC(C)(C)CC(=O)N1c2ccc(Cl)cc2C(=O)N(N=Cc2ccccc2F)C1c1ccccc1 (stereo not shown) [3d, 6-Chloro-1-(3,3-dimethylbutanoyl)-3-(2-fluorobenzylideneamino)-2-phenyl-2,3-dihydroquinazolin-4(1H)-one]",2.46 × 10^4 M^−1
